The results in this text go back to PubChem BioAssay (NCI).

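Tested at 5 concentrations; 48 h exposure; 96-well plates; endpoints linearly interpolated, else capped at highest concentration. Abbreviation: GI50, concentration required for 50% inhibition of growth. TGI: total growth inhibition.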

Some test systems named below: OVCAR-8 ovarian; T-47D breast; HT29 colon; NCI/ADR-RES ovarian; UACC-257 melanoma; SN12C renal; IGROV1 ovarian; KM12 colon; SF-539 CNS; HCT-116 colon.
Common to all, as to experiment: growth of human tumour cells (NCI), 48 h

As to `Cc1cc(-c2cc(O)ccc2Cl)cc2nnc(Nc3ccc(OCCN4CCCC4)cc3)nc12`, the GI50 was 0.705 µM with OVCAR-8 ovarian; 1.66 µM in the test on T-47D breast; 1.93 µM in the test with HT29 colon; 0.682 µM with NCI/ADR-RES ovarian; 1.96 µM in the test with UACC-257 melanoma; 1.47 µM in the test with SN12C renal. The GI50 in the test on IGROV1 ovarian was 1.63 µM; in the test on KM12 colon it was 0.617 µM; in the test with SF-539 CNS, 1.04 µM; with HCT-116 colon it was 0.18 µM. For the same compound, the TGI in the test on OVCAR-8 ovarian was found to be 1.56 µM; with T-47D breast, 3.95 µM; with HT29 colon it was 3.91 µM; in the test with NCI/ADR-RES ovarian, 1.61 µM; in the test with UACC-257 melanoma, 3.91 µM; in the test with SN12C renal it was 3.03 µM. Moreover, the TGI worked out at 3.57 µM in the test with IGROV1 ovarian, 1.32 µM in the test on KM12 colon, 2.32 µM in the test on SF-539 CNS and 0.341 µM in the test with HCT-116 colon.

Turning to `CC(=O)N1N=C(c2ccc(Nc3nc(Nc4ccc(F)cc4)nc(Nc4ccc(F)cc4)n3)cc2)CC1c1ccc(N(C)C)cc1` (stereo not given), the GI50 is 2.72 µM in the test with OVCAR-8 ovarian; 4.5 µM in the test with T-47D breast; 3.79 µM in the test on HT29 colon; 4.72 µM in the test with NCI/ADR-RES ovarian; 7.14 µM in the test on UACC-257 melanoma; 6.3 µM in the test on SN12C renal. Further, the GI50 was 7.09 µM in the test with IGROV1 ovarian, 3.34 µM in the test on KM12 colon, 12.8 µM in the test with SF-539 CNS and 3.6 µM with HCT-116 colon. Also, the TGI with OVCAR-8 ovarian is 10.1 µM; in the test on T-47D breast, 37.4 µM; with HT29 colon, 28.9 µM; in the test on NCI/ADR-RES ovarian it was 33.3 µM; in the test on UACC-257 melanoma, 23.5 µM; in the test with SN12C renal, greater than 100 µM. Further, the TGI in the test on IGROV1 ovarian turned out to be 30.6 µM; in the test on KM12 colon, 12.4 µM; in the test with SF-539 CNS, 41.2 µM; in the test on HCT-116 colon, 14.7 µM.

As for `CC(=O)C1=C(O)C=C2Oc3c(C(=O)/C=C/c4cc(Cl)cc(Cl)c4)c(O)c(C)c(O)c3[C@]2(C)C1=O`, the GI50 in the test with OVCAR-8 ovarian was 0.496 µM; in the test with T-47D breast, 0.435 µM; in the test with HT29 colon it was 0.47 µM; with NCI/ADR-RES ovarian, 0.537 µM; in the test with UACC-257 melanoma, 0.535 µM; with SN12C renal, 0.534 µM. For the same compound, the GI50 in the test with IGROV1 ovarian is 0.673 µM; in the test on KM12 colon it was 0.46 µM; in the test with SF-539 CNS, 0.552 µM; in the test with HCT-116 colon, 0.465 µM. Moreover, the TGI with OVCAR-8 ovarian worked out at 2.26 µM; in the test on T-47D breast, 1.36 µM; with HT29 colon it was 1.56 µM; with NCI/ADR-RES ovarian, 1.96 µM; in the test with UACC-257 melanoma it was 2.5 µM; with SN12C renal, 2.45 µM. For the same compound, the TGI in the test on IGROV1 ovarian came to 4.69 µM; in the test with KM12 colon, 1.76 µM; in the test on SF-539 CNS, 2.26 µM; in the test on HCT-116 colon, 1.38 µM.
